Reference: ChEMBL document CHEMBL5729376, “SSAO inhibitors and use thereof” (2022)

Experiments:
[1] = biological target: T1, Amine oxidase [flavin-containing] A (Homo sapiens, UniProt P21397); assay: (§1) SSAO Activity Assay: Amine oxidase activity of recombinant hSSAO, hMAO-A, and hMAO-B isoforms are measured using the MAO-Glo assay kit (Promega, V1402). Ten nL test compounds (with DMSO as vehicle, 0.1% v/v for hSSAO, hMAO-A and hMAO-B) were added into assay plates by Echo, and pre-incubated with 5 μL of enzyme for 30 mins at room temperature before the addition of 5 μL of luminogenic substrate. The substrate concentration is 40 μM for human recombinant SSAO, 40 μM for human recombinant MAO-A, and 4 μM for human recombinant MAO-B. The hSSAO and hMAO-A assays were conducted in the MAO-A reaction buffer in the kit, and the MAO-B assay was conducted in the MAO-B reaction buffer. Oxidation of the substrate was conducted for 1 hr, before the addition of detecting reagent according the manufacture's protocol. The IC50 value of the tested compounds was calculated by fitting the dose response curve using a 4-parameter non-linear regression routine.
T1 sequence (P21397 whole entry): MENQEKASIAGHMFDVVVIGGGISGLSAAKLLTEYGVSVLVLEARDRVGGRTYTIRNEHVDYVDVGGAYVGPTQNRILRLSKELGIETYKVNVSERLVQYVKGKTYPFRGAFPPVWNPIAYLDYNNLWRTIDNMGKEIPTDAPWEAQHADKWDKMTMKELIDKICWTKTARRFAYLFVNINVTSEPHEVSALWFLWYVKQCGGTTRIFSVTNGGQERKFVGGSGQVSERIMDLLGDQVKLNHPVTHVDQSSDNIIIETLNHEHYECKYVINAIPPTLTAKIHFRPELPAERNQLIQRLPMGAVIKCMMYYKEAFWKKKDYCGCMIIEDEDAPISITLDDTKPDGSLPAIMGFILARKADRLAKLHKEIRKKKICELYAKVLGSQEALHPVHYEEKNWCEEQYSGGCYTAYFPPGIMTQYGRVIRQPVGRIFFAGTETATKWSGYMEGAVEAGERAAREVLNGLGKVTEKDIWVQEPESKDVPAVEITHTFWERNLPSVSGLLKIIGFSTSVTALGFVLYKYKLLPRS

[2] = biological target: T2, Amine oxidase [flavin-containing] B (Homo sapiens, UniProt P27338); assay: as §1
T2 sequence (P27338 whole entry): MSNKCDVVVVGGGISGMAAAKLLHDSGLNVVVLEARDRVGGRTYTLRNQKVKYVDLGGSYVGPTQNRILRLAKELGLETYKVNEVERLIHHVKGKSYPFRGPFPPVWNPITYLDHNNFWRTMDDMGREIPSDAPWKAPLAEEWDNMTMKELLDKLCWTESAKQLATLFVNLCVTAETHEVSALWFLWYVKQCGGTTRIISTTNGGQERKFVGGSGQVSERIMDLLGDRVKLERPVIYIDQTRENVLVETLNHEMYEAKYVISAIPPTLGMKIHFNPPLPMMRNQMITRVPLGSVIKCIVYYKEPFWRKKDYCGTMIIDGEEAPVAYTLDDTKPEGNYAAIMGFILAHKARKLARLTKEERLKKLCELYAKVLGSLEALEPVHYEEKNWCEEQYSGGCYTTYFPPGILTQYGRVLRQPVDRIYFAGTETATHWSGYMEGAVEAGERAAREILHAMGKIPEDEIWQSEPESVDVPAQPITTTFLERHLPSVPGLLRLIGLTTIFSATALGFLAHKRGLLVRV

SMILES | IC50 [1] [µM] | IC50 [2] [µM]
CC(C)(C)C(=O)N1CCC(CS(=O)(=O)c2ccc(OC/C(=C/F)CN)cc2)CC1 | > 30 | > 30
CN(C(=O)C1CC1)C12CCC(CS(=O)(=O)c3ccc(OC/C(=C/F)CN)cc3)(CC1)CC2 | > 30 | > 30
NC/C(=C\F)COc1ccc(S(=O)(=O)CC2CCOCC2)c(F)c1 | < 10 | < 10
NC/C(=C\F)COc1ccc(S(=O)(=O)COCC2CCOCC2)cc1 | > 30 | 10 to 30
COCC(COC)OCS(=O)(=O)c1ccc(OC/C(=C/F)CN)cc1 | > 30 | < 10
CO[C@H]1CC[C@@H](CS(=O)(=O)c2ccc(OC/C(=C/F)CN)cc2)CC1 | 10 to 30 | 10 to 30
CC(C)(C)C(=O)NC12CCC(CS(=O)(=O)c3ccc(OC/C(=C/F)CN)cc3)(CC1)C2 | < 10 | 
CC1(C)COC(CS(=O)(=O)c2ccc(OC/C(=C/F)CN)cc2)CO1 (stereo not given) | > 30 | < 10
NC/C(=C\F)COc1ccc(S(=O)(=O)CC23CCC(C4(O)CC4)(CC2)CC3)cc1 | > 30 | 
NC/C(=C\F)COc1ccc(S(=O)(=O)C[C@H]2CC[C@H](O)CC2)cc1 | 10 to 30 | 10 to 30
COCCOCS(=O)(=O)c1ccc(OC/C(=C/F)CN)cc1 | > 30 | > 30
N#CC1(CS(=O)(=O)c2ccc(OC/C(=C/F)CN)cc2)CCOCC1 |  | < 10
COCC(COC)CS(=O)(=O)c1ccc(OC/C(=C/F)CN)cc1 | > 30 | < 10
NC/C(=C\F)COc1ccc(S(=O)(=O)CC2CCN(C(=O)C3CC3)CC2)c(Cl)c1 | > 30 | > 30
COC1(CS(=O)(=O)c2ccc(OC/C(=C/F)CN)cc2)CCOCC1 | > 30 | < 10
NC/C(=C\F)COc1ccc(S(=O)(=O)CC23CCC(O)(CC2)CC3)cc1 | > 30 | 
NC/C(=C\F)COc1ccc(S(=O)(=O)CC23CCC(N4CCCS4(=O)=O)(CC2)CC3)cc1 | > 30 | > 30
NC/C(=C\F)COc1ccc(S(=O)(=O)CC23CCC(NC(=O)C4CC4)(CC2)CC3)cc1 | > 30 | 
NC/C(=C\F)COc1ccc(S(=O)(=O)COCC2CCN(C(=O)C3(C(F)(F)F)CC3)CC2)cc1 | > 30 | 
NC/C(=C\F)COc1ccc(S(=O)(=O)COC2CCN(C(=O)C3CCCC3)CC2)cc1 | > 30 | > 30
CC(C)C(=O)Nc1ccc(CS(=O)(=O)c2ccc(OC/C(=C/F)CN)cc2)cc1 | > 30 | < 10

SMILES | IC50 [1] [µM] | IC50 [2] [µM]
CC(C)C(=O)N1CC(CS(=O)(=O)c2ccc(OC/C(=C/F)CN)cc2)C1 | > 30 | < 10
CC(C)(C)C(=O)N1CCN(CS(=O)(=O)c2ccc(OC/C(=C/F)CN)cc2)C(=O)C1 |  | < 10
NC/C(=C\F)COc1ccc(S(=O)(=O)COC2CCOCC2)cc1 | > 30 | < 10
NC/C(=C\F)COc1ccc(S(=O)(=O)CC23CCC(C(=O)NC4CCC4)(CC2)CC3)cc1 | > 30 | 
CC1CCN(C23CCC(CS(=O)(=O)c4ccc(OC/C(=C/F)CN)cc4)(CC2)CC3)C1=O (stereo not given) | > 30 | 
NC/C(=C\F)COc1ccc(S(=O)(=O)C[C@H]2CCOC2)cc1 | 10 to 30 | < 10
NC/C(=C\F)COc1ccc(S(=O)(=O)CC2CCOCC2)cc1 | > 30 | < 10
N#CC1(COCS(=O)(=O)c2ccc(OC/C(=C/F)CN)cc2)CCOCC1 | > 30 | > 30
NC/C(=C\F)COc1ccc(S(=O)(=O)CC23CCC(C(=O)N4CCC(F)(F)CC4)(CC2)CC3)cc1 | > 30 | > 30
N#CC12CCC(CS(=O)(=O)c3ccc(OC/C(=C/F)CN)cc3)(CC1)CC2 | > 30 | < 10
C[C@H](CN1CCCC1=O)CS(=O)(=O)c1ccc(OC/C(=C/F)CN)cc1 | > 30 | > 30
CC(C)C(=O)N1CCC(C)(CS(=O)(=O)c2ccc(OC/C(=C/F)CN)cc2)CC1 | > 30 | > 30
CC1(CS(=O)(=O)c2ccc(OC/C(=C/F)CN)cc2)CCN(C(=O)C2(C)CC2)CC1 |  | < 10
CC1(CS(=O)(=O)c2ccc(OC/C(=C/F)CN)cc2)CCOCC1 | > 30 | < 10
NC/C(=C\F)COc1ccc(S(=O)(=O)CC2CCOCC2)c(Cl)c1 |  | < 10
CC(C)C(=O)N1CCC(C)(COCS(=O)(=O)c2ccc(OC/C(=C/F)CN)cc2)CC1 | > 30 | < 10
NC/C(=C\F)COc1ccc(S(=O)(=O)Cc2ccc(C(=O)N3CCCC3)cc2)cc1 | > 30 | > 30
CC(C)N(C)C(=O)C(C)(C)CS(=O)(=O)c1ccc(OC/C(=C/F)CN)cc1 | > 30 | > 30
NC/C(=C\F)COc1ccc(S(=O)(=O)CC23CCC(NC(=O)CC(F)(F)F)(CC2)CC3)cc1 | > 30 | > 30
CO[C@H]1CC[C@H](CS(=O)(=O)c2ccc(OC/C(=C/F)CN)cc2)CC1 | 10 to 30 | < 10
C[C@@H](CN1CCCC1=O)CS(=O)(=O)c1ccc(OC/C(=C/F)CN)cc1 | > 30 | > 30

SMILES | IC50 [1] [µM] | IC50 [2] [µM]
CC(C)C(=O)N(C)CC(C)(C)CS(=O)(=O)c1ccc(OC/C(=C/F)CN)cc1 | > 30 | 
NC/C(=C\F)COc1ccc(S(=O)(=O)CC2CCN(C(=O)C34CC(F)(C3)C4)CC2)cc1 |  | < 10
CC1(COCS(=O)(=O)c2ccc(OC/C(=C/F)CN)cc2)CCOCC1 | > 30 | < 10
NC/C(=C\F)COc1ccc(S(=O)(=O)CC23CCC(C4(NC(=O)C5CC5)CC4)(CC2)CC3)cc1 | > 30 | > 30
CC1(CS(=O)(=O)c2ccc(OC/C(=C/F)CN)cc2F)CCOCC1 | < 10 | < 10
CC1(COCS(=O)(=O)c2ccc(OC/C(=C/F)CN)cc2)CCN(C(=O)C(C)(C)C)CC1 | > 30 | < 10
NC/C(=C\F)COc1ccc(S(=O)(=O)C[C@H]2CC[C@@H](O)CC2)cc1 | < 10 | < 10
NC/C(=C\F)COc1ccc(S(=O)(=O)C[C@@H]2CCCO2)cc1 | > 30 | < 10
NC/C(=C\F)COc1ccc(S(=O)(=O)C[C@H]2CCCO2)cc1 | > 30 | < 10
NC/C(=C\F)COc1ccc(S(=O)(=O)CC2CCOCC2)cc1F | < 10 | < 10
CC1(C(=O)N2CCN(CS(=O)(=O)c3ccc(OC/C(=C/F)CN)cc3)C(=O)C2)CCC1 |  | < 10
CN(C)C(=O)C12CCC(CS(=O)(=O)c3ccc(OC/C(=C/F)CN)cc3)(CC1)CC2 | > 30 | 
NC/C(=C\F)COc1ccc(S(=O)(=O)CC2(O)CCOCC2)cc1 | > 30 | < 10
NC/C(=C\F)COc1ccc(S(=O)(=O)Cc2ccc(C(=O)NC3CCC3)c(C(F)(F)F)c2)cc1 | > 30 | 
NC/C(=C\F)COc1ccc(S(=O)(=O)C[C@H]2CC[C@H](NC(=O)C3CC3)CC2)cc1 | > 30 | < 10
CCN(CC(C)(C)CS(=O)(=O)c1ccc(OC/C(=C/F)CN)cc1)C(=O)C(C)C | > 30 | 
NC/C(=C\F)COc1ccc(S(=O)(=O)C[C@@H]2CCOC2)cc1 | 10 to 30 | < 10
COCS(=O)(=O)c1ccc(OC/C(=C/F)CN)cc1 | > 30 | 
CC(C)C(=O)N1CCC(CS(=O)(=O)c2ccc(OC/C(=C/F)CN)cc2)C1 (stereo not given) |  | > 30
NC/C(=C\F)COc1ccc(S(=O)(=O)CC2CCN(C(=O)c3ccc(F)cc3)CC2)cc1 | < 10 | < 10
